Results on 31 compounds are retold here after patent US10377753B2, “Substituted 4-azaindoles and their use as GluN2B receptor modulators” (Janssen Pharmaceutica NV, priority 2015, dated 2019).

In general, IC50 refers to the concentration needed to halve the response being measured.

Sequence of cloned human NR1/NR2B ion channels (Q13224 27-1484, other chains not shown): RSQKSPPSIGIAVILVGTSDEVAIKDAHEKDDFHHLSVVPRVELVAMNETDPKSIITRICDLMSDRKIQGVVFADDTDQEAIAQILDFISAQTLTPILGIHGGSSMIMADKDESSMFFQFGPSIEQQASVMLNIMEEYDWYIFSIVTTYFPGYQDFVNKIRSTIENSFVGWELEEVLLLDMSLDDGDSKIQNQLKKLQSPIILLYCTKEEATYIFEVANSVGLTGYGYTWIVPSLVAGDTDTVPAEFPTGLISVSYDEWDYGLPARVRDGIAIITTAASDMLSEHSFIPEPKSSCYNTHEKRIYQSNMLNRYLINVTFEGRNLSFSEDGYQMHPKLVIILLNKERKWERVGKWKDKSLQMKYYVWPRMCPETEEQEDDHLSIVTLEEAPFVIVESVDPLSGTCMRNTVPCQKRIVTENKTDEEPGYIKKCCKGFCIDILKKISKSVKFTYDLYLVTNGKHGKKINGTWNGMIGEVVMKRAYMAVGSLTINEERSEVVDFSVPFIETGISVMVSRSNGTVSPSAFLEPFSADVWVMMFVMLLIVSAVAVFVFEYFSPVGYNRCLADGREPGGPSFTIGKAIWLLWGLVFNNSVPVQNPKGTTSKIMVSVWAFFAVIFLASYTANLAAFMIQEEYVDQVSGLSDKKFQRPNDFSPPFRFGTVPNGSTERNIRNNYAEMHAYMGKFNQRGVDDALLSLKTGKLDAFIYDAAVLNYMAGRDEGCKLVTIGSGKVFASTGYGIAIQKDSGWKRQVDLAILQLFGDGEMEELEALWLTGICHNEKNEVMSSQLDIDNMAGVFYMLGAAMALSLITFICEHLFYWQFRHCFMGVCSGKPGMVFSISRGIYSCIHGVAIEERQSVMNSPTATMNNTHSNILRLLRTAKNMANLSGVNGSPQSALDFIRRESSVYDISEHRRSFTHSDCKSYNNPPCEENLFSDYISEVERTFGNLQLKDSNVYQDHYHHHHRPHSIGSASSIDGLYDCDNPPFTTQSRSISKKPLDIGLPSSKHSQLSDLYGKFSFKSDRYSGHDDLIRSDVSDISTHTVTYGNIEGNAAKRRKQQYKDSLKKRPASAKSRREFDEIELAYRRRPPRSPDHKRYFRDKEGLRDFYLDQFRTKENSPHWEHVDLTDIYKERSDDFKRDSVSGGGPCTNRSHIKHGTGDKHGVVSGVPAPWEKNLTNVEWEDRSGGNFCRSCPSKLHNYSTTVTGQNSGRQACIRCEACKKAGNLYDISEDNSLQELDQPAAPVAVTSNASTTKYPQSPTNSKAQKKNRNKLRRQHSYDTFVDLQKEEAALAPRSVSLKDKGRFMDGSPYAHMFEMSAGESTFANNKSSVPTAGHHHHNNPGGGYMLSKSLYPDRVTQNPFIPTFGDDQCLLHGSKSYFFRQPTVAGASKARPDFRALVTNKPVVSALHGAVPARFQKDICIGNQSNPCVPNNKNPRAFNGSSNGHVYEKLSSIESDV

The target of this assay is cloned human NR1/NR2B ion channels (Homo sapiens (Human), UniProt Q05586+Q13224). The assay can be described thus: HNR2BC: effects of test articles on cloned human NR1/NR2B ion channels expressed in mammalian cells (FLIPR calcium flux). Type of assay: cell-based. The note with it: cloned human NR1/NR2B, Table 5. The procedure, abridged:
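Compounds were added to dye-loaded cells for 5 min with fluorescence monitored for agonism, followed by co-agonists (glutamate ~EC80, glycine 10 μM saturating) for 5 min. Cells stably expressed inducible human NR1/NR2B, and the buffer was pH 7.4. The FLIPR Ca2+ flux signal was normalized against control wells.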
As for `Cc1cc(-c2cnc3ccn(CC(=O)O)c3c2)ccc1F` [Example 70, 2-[6-(4-Fluoro-3-methyl-phenyl)pyrrolo[3,2-b]pyridin-1-yl]acetic acid], the IC50 is 50.1 nM.

In the case of `O=C(Cn1ccc2ncc(-c3ccccc3F)cc21)N1CCC1` [Example 71, 1-(azetidin-1-yl)-2-[6-(2-fluorophenyl)pyrrolo[3,2-b]pyridin-1-yl]ethanone], the IC50 was 7940 nM. As for `O=C(Cn1ccc2ncc(-c3cccc(F)c3)cc21)N1CCC1` [Example 72, 1-(Azetidin-1-yl)-2-[6-(3-fluorophenyl)pyrrolo[3,2-b]pyridin-1-yl]ethanone], the IC50 was 251 nM. The same measure for `Cc1ccc(-c2cnc3ccn(CC(=O)N4CCC4)c3c2)cc1` [Example 73, 1-(Azetidin-1-yl)-2-[6-(p-tolyl)pyrrolo[3,2-b]pyridin-1-yl]ethanone]: 39.8 nM; for `CCc1cccc(-c2cnc3ccn(CC(=O)N4CCC4)c3c2)c1` [Example 74, 1-(Azetidin-1-yl)-2-[6-(3-ethylphenyl)pyrrolo[3,2-b]pyridin-1-yl]ethanone]: 200 nM; for `O=C(Cn1ccc2ncc(-c3ccccc3F)cc21)NC1CC1` [Example 75, N-Cyclopropyl-2-[6-(2-fluorophenyl)pyrrolo[3,2-b]pyridin-1-yl]acetamide]: 50.1 nM. For the compound `O=C(Cn1ccc2ncc(-c3cccc(F)c3)cc21)NC1CC1` [Example 76, N-Cyclopropyl-2-[6-(3-fluorophenyl)pyrrolo[3,2-b]pyridin-1-yl]acetamide], the IC50 is 1000 nM. Take `Cc1ccc(-c2cnc3ccn(CC(=O)NC4CC4)c3c2)cc1` [Example 77, N-Cyclopropyl-2-[6-(p-tolyl)pyrrolo[3,2-b]pyridin-1-yl]acetamide]: the IC50 was 251 nM. As for `O=C(Cn1ccc2ncc(-c3ccccc3)cc21)N1CCCC1` [Example 78, 2-(6-Phenylpyrrolo[3,2-b]pyridin-1-yl)-1-pyrrolidin-1-yl-ethanone], the IC50 is 1580 nM. As to `O=C(Cn1ccc2ncc(-c3ccccc3F)cc21)N1CCCC1` [Example 79, 2-[6-(2-Fluorophenyl)pyrrolo[3,2-b]pyridin-1-yl]-1-pyrrolidin-1-yl-ethanone], the IC50 was 79.4 nM. Turning to `O=C(Cn1ccc2ncc(-c3ccc(F)cc3)cc21)N1CCCC1` [Example 80, 2-[6-(4-Fluorophenyl)pyrrolo[3,2-b]pyridin-1-yl]-1-pyrrolidin-1-yl-ethanone], the IC50 is 316 nM. The same measure for `Cc1cccc(-c2cnc3ccn(CC(=O)N4CCCC4)c3c2)c1` [Example 81, 2-[6-(m-Tolyl)pyrrolo[3,2-b]pyridin-1-yl]-1-pyrrolidin-1-yl-ethanone]: 316 nM; for `Cc1ccc(-c2cnc3ccn(CC(=O)N4CCCC4)c3c2)cc1` [Example 82, 2-[6-(p-Tolyl)pyrrolo[3,2-b]pyridin-1-yl]-1-pyrrolidin-1-yl-ethanone]: 63.1 nM. The same measure for `CCc1cccc(-c2cnc3ccn(CC(=O)N4CCCC4)c3c2)c1` [Example 83, 2-[6-(3-Ethylphenyl)pyrrolo[3,2-b]pyridin-1-yl]-1-pyrrolidin-1-yl-ethanone]: 251 nM; for `O=C(Cn1ccc2ncc(-c3cccc(F)c3)cc21)N1CCCC1` [Example 84, 2-[6-(3-Fluorophenyl)pyrrolo[3,2-b]pyridin-1-yl]-1-pyrrolidin-1-yl-ethanone]: 79.4 nM.

For the compound `O=C(Cn1ccc2ncc(-c3ccccc3)cc21)N1CCOCC1` [Example 85, 1-Morpholino-2-(6-phenylpyrrolo[3,2-b]pyridin-1-yl)ethanone], the IC50 is 63.1 nM. Turning to `O=C(Cn1ccc2ncc(-c3ccccc3F)cc21)N1CCOCC1` [Example 86, 2-[6-(2-Fluorophenyl)pyrrolo[3,2-b]pyridin-1-yl]-1-morpholino-ethanone], the IC50 is 501 nM.

Regarding `O=C(Cn1ccc2ncc(-c3cccc(F)c3)cc21)N1CCOCC1` [Example 87, 2-[6-(3-Fluorophenyl)pyrrolo[3,2-b]pyridin-1-yl]-1-morpholino-ethanone], the IC50 was 1000 nM. As for `O=C(Cn1ccc2ncc(-c3ccc(F)cc3)cc21)N1CCOCC1` [Example 88, 2-[6-(4-Fluorophenyl)pyrrolo[3,2-b]pyridin-1-yl]-1-morpholino-ethanone], the figure is 251 nM; as for `Cc1cccc(-c2cnc3ccn(CC(=O)N4CCOCC4)c3c2)c1` [Example 89, 1-Morpholino-2-[6-(m-tolyl)pyrrolo[3,2-b]pyridin-1-yl]ethanone], 200 nM.

As to `Cc1ccc(-c2cnc3ccn(CC(=O)N4CCOCC4)c3c2)cc1` [Example 90, 1-Morpholino-2-[6-(p-tolyl)pyrrolo[3,2-b]pyridin-1-yl]ethanone], the IC50 was 63.1 nM.

As to `CCc1cccc(-c2cnc3ccn(CC(=O)N4CCOCC4)c3c2)c1` [Example 91, 2-[6-(3-ethylphenyl)pyrrolo[3,2-b]pyridin-1-yl]-1-morpholino-ethanone], the IC50 is 1580 nM. `Cc1cc(-c2cnc3c(F)cn(CC(=O)N(C)C)c3c2)ccc1F` [Example 92, 2-[3-Fluoro-6-(4-fluoro-3-methyl-phenyl)pyrrolo[3,2-b]pyridin-1-yl]-N,N-dimethyl-acetamide]: the IC50 is 126 nM. Regarding `CN(C)C(=O)Cn1cc(F)c2ncc(-c3ccc(F)c(F)c3)cc21` [Example 93, 2-[6-(3,4-Difluorophenyl)-3-fluoro-pyrrolo[3,2-b]pyridin-1-yl]-N,N-dimethyl-acetamide], the IC50 was 39.8 nM. The same measure for `CN(C)C(=O)Cn1cc(F)c2ncc(-c3cc(F)c(F)c(F)c3)cc21` [Example 94, 2-[3-Fluoro-6-(3,4,5-trifluorophenyl)pyrrolo[3,2-b]pyridin-1-yl]-N,N-dimethyl-acetamide]: 63.1 nM.

On to `CN(C)C(=O)Cn1cc(F)c2ncc(-c3cccc(C(F)F)c3)cc21` [Example 95, 2-[6-[3-(Difluoromethyl)phenyl]-3-fluoro-pyrrolo[3,2-b]pyridin-1-yl]-N,N-dimethyl-acetamide], for which the IC50 is 39.8 nM.

With `Cc1csc(-c2cnc3c(F)cn(CC(=O)N(C)C)c3c2)c1` [Example 96, 2-[3-Fluoro-6-(4-methyl-2-thienyl)pyrrolo[3,2-b]pyridin-1-yl]-N,N-dimethyl-acetamide], the IC50 is 50.1 nM. As for `CN(C)C(=O)Cn1cc(F)c2ncc(-c3ccc(Cl)s3)cc21` [Example 97, 2-[6-(5-Chloro-2-thienyl)-3-fluoro-pyrrolo[3,2-b]pyridin-1-yl]-N,N-dimethyl-acetamide], the figure is 63.1 nM.

As for `CN(C)C(=O)Cn1cc(F)c2ncc(-c3ccc(F)cc3)cc21` [Example 98, 2-[3-Fluoro-6-(4-fluorophenyl)pyrrolo[3,2-b]pyridin-1-yl]-N,N-dimethyl-acetamide], the IC50 was 50.1 nM. `O=C(Cn1ccc2ncc(-c3cncc(C(F)(F)F)c3)cc21)NC1CC1` [Example 99, N-Cyclopropyl-2-[6-[5-(trifluoromethyl)-3-pyridyl]pyrrolo[3,2-b]pyridin-1-yl]acetamide]: the concentration for half-maximal inhibition (IC50) is 631 nM. Consider `O=C(Cn1ccc2ncc(-c3ccc(F)c(F)c3)cc21)NC1CC1` [Example 100, N-Cyclopropyl-2-[6-(3,4-difluorophenyl)pyrrolo[3,2-b]pyridin-1-yl]acetamide], for which the concentration for half-maximal inhibition (IC50) is 1000 nM.
